Where “and” joins values, the source holds several entries; their conditions need not be identical. Equal values may be shown once.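 Five compound concentrations were applied to cells in 96-well plates for 48 hours; endpoints were derived by simple linear interpolation of the resulting dose-response curve. GI50 is the concentration that inhibits growth by half. TGI: total growth inhibition.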
Experiments:
Test in all cases: NCI anticancer screen, dose series, 48 h
[1] = system: A549 NSCLC
[2] = system: CAKI-1 renal
[3] = system: HCC-2998 colon
[4] = system: HL-60(TB) leukemia
[5] = system: OVCAR-5 ovarian
[6] = system: RXF 393 renal
[7] = system: SK-MEL-5 melanoma
[8] = system: TK-10 renal
[9] = system: RPMI-8226 leukemia
[10] = system: SK-MEL-28 melanoma

Cc1cn2c(/C=N/N=C(N)N)c(-c3ccncc3)nc2s1
GI50 [1]: 17.6 µM
TGI [1]: 32.1 µM
GI50 [2]: > 100 µM
TGI [2]: > 100 µM
GI50 [3]: 14.6 µM
TGI [3]: 27.7 µM
GI50 [4]: 19.7 µM
TGI [4]: 40.1 µM
GI50 [5]: 17.8 µM
TGI [5]: 31.7 µM
GI50 [6]: 14.9 µM
TGI [6]: 29.8 µM
GI50 [7]: 19.8 µM
TGI [7]: 34.6 µM
GI50 [8]: 15 µM
TGI [8]: 28.6 µM

CC1(C)C(=O)C(=Cc2ccco2)C1=O
TGI [1]: > 100 µM
TGI [2]: > 100 µM
TGI [3]: > 100 µM
TGI [4]: > 100 µM
TGI [5]: > 100 µM
TGI [9]: > 100 µM
TGI [10]: > 100 µM
TGI [7]: > 100 µM
TGI [8]: > 100 µM

C=C(CO)CC(/C=C(\C)CC/C=C(\C)CCl)OC(C)=O (stereo not drawn)
TGI [1]: > 100 µM
TGI [3]: > 100 µM
TGI [4]: > 100 µM
TGI [5]: > 100 µM
TGI [9]: > 100 µM
TGI [6]: > 100 µM
TGI [10]: > 100 µM
TGI [7]: > 100 µM
TGI [8]: > 100 µM

S=C(CSc1ccccc1)Nc1cccc2ccccc12
TGI [1]: > 100 µM
TGI [2]: > 100 µM
TGI [4]: > 100 µM
TGI [5]: > 100 µM
TGI [9]: > 100 µM
TGI [6]: > 100 µM
TGI [10]: > 100 µM
TGI [7]: 36.6 µM
TGI [8]: > 100 µM

CCC[CH2][Sn]([CH2]CCC)([O]C(=O)c1cccc(F)c1F)[O]C(=O)c1cccc(F)c1F
GI50 [1]: 5.37 µM
TGI [1]: 17.5 µM
GI50 [3]: 1.63 µM
TGI [3]: 2.98 µM
GI50 [4]: 0.42 µM
TGI [4]: 2.4 µM
GI50 [5]: 1.88 µM
TGI [5]: 3.28 µM
GI50 [6]: 0.321 µM
TGI [6]: 1.22 µM
GI50 [10]: 0.933 µM
TGI [10]: 2.13 µM
GI50 [7]: 1.52 µM
TGI [7]: 2.87 µM
GI50 [8]: 1.72 µM
TGI [8]: 3.11 µM

COc1cc2c3c(c1OC)C(=O)C=C3N(S(=O)(=O)c1ccc(C)cc1)CC2
TGI [1]: > 100 µM
TGI [2]: > 100 µM
TGI [3]: > 100 µM
TGI [4]: > 100 µM
TGI [5]: > 100 µM
TGI [9]: > 100 µM
TGI [10]: > 100 µM
TGI [7]: > 100 µM
TGI [8]: > 100 µM

COc1ccc(-c2nc(N)c(C#N)c3c2CCOc2c-3ccc3ccccc23)cc1
GI50 [1]: 28 µM
TGI [1]: 76.7 µM
GI50 [2]: 3.32 µM
TGI [2]: 19.6 µM
GI50 [3]: 56.1 µM
TGI [3]: > 100 µM
GI50 [4]: > 100 µM
TGI [4]: > 100 µM
GI50 [5]: 62.2 µM
TGI [5]: > 100 µM
GI50 [6]: 1.6 µM
TGI [6]: 31.1 µM
GI50 [10]: 12.1 µM
TGI [10]: 79.1 µM
GI50 [8]: 21.5 µM
TGI [8]: 53.2 µM

CCN(CC)c1nc(NC2CCCCC2)c2nc(N(CC)CC)nc(NC3CCCCC3)c2n1
TGI [1]: > 100 µM
TGI [3]: > 100 µM
TGI [4]: > 100 µM
TGI [5]: > 100 µM
TGI [6]: 99.8 µM
TGI [10]: > 100 µM
TGI [7]: > 100 µM
TGI [8]: > 100 µM

CNCCCNc1c2ccccc2nc2cccc([N+](=O)[O-])c12
TGI [1]: 0.00587 µM and 0.0106 µM
TGI [2]: 0.0271 µM
TGI [3]: 0.0173 µM
TGI [5]: 0.022 µM
TGI [6]: 0.00217 µM
TGI [10]: 0.0279 µM and 0.0138 µM
TGI [7]: 0.00982 µM
TGI [8]: 0.0327 µM

CC12OC(C(=O)C13CCC3)C1C(=O)c3ccc4c(ccc5ccccc54)c3C(=O)C12 (stereo not drawn)
GI50 [1]: 19.5 µM
TGI [1]: > 100 µM
GI50 [2]: 1.42 µM
TGI [2]: 12.7 µM
GI50 [4]: 5.15 µM
TGI [4]: 43.7 µM
GI50 [5]: 17.8 µM
TGI [5]: 33.9 µM
GI50 [6]: 13.3 µM
TGI [6]: 30.3 µM
GI50 [10]: 36.1 µM
TGI [10]: > 100 µM
GI50 [8]: 4.29 µM
TGI [8]: 15 µM

O=c1c2cccnc2ncn1CCCN1CCCC1
TGI [1]: > 100 µM
TGI [2]: > 100 µM
TGI [5]: > 100 µM
TGI [6]: > 100 µM
TGI [7]: > 100 µM
TGI [8]: > 100 µM

COC(=O)/C(=C/c1ccc(OC)cc1)C(C(=O)O)=C1CCCCC1
TGI [1]: > 100 µM
TGI [2]: > 100 µM
TGI [4]: > 100 µM
TGI [5]: > 100 µM
TGI [9]: > 100 µM
TGI [6]: > 100 µM
TGI [7]: > 100 µM
TGI [8]: > 100 µM

C[C@H](NC(=O)c1c(C(F)F)nn(C)c1Oc1cccc(C(F)(F)F)c1)c1ccc(C(=O)O)cc1
GI50 [1]: > 100 µM
TGI [1]: > 100 µM
GI50 [2]: > 100 µM
TGI [2]: > 100 µM
GI50 [3]: > 100 µM
TGI [3]: > 100 µM
GI50 [4]: > 100 µM
TGI [4]: > 100 µM
GI50 [5]: > 100 µM
TGI [5]: > 100 µM
GI50 [9]: > 100 µM
TGI [9]: > 100 µM
GI50 [10]: > 100 µM
TGI [10]: > 100 µM
GI50 [7]: > 100 µM
TGI [7]: > 100 µM
GI50 [8]: > 100 µM
TGI [8]: > 100 µM

O=C(NCc1ccc2ccc3cccnc3c2n1)c1ccc[n+](Cc2ccccc2)c1
TGI [1]: > 100 µM
TGI [3]: > 100 µM
TGI [4]: > 100 µM
TGI [5]: > 100 µM
TGI [9]: > 100 µM
TGI [6]: > 100 µM
TGI [10]: > 100 µM
TGI [7]: > 100 µM
TGI [8]: > 100 µM

Cc1ccc(O)c(NC2=C(Cl)C(=O)N(Cc3ccccc3)C2=O)c1
GI50 [1]: 27.1 µM
TGI [1]: 91.3 µM
GI50 [2]: 27.5 µM
TGI [2]: 82.3 µM
GI50 [5]: 33.3 µM
TGI [5]: 89.1 µM
GI50 [9]: 7.7 µM
TGI [9]: 36.6 µM
GI50 [6]: 15 µM
TGI [6]: 39.3 µM
GI50 [10]: 22.3 µM
TGI [10]: 54.1 µM
GI50 [7]: 21.1 µM
TGI [7]: 40.7 µM
GI50 [8]: 38.3 µM
TGI [8]: > 100 µM

COc1cc(Nc2ncnc(Nc3ccc4c(n3)NC(=O)C(C)(C)O4)n2)cc(OC)c1OC
GI50 [1]: 1.25 µM
TGI [1]: > 100 µM
GI50 [2]: 0.319 µM
TGI [2]: > 100 µM
GI50 [3]: > 100 µM
TGI [3]: > 100 µM
GI50 [4]: 4.52 µM
TGI [4]: > 100 µM
GI50 [5]: 0.602 µM
TGI [5]: > 100 µM
GI50 [6]: 0.148 µM
TGI [6]: 0.622 µM
GI50 [10]: > 23.9 µM
TGI [10]: > 100 µM
GI50 [7]: > 100 µM
TGI [7]: > 100 µM
GI50 [8]: 0.457 µM
TGI [8]: > 100 µM

C=Cc1c(C)c2cc3[nH]c(cc4nc(cc5nc(cc1[nH]2)C(C)=C5CCC(=O)N(CC)CC)C(CCC(=O)N(CC)CC)=C4C)c(C)c3C=C
TGI [1]: > 100 µM
TGI [3]: > 100 µM
TGI [4]: > 100 µM
TGI [5]: > 100 µM
TGI [6]: > 100 µM
TGI [10]: > 100 µM
TGI [7]: > 100 µM
TGI [8]: > 100 µM

COc1cc2nc(-c3cccc4cccnc34)nc(NC3CCN(Cc4ccccc4)CC3)c2cc1OC
GI50 [1]: 0.56 µM
TGI [1]: 1.94 µM
GI50 [2]: 1.37 µM
TGI [2]: 2.98 µM
GI50 [3]: 1.72 µM
TGI [3]: 3.16 µM
GI50 [5]: 1.3 µM
TGI [5]: 2.73 µM
GI50 [9]: 1.6 µM
TGI [9]: 4.54 µM
GI50 [10]: 1.82 µM
TGI [10]: 3.6 µM
GI50 [7]: 1.66 µM
TGI [7]: 3.18 µM
GI50 [8]: 1.52 µM
TGI [8]: 2.98 µM
